# Test results taken from patent publication US20230295115A1, “SUBSTITUTED ISOQUINOLINYLMETHYL AMIDES, ANALOGUES THEREOF, AND METHODS USING SAME” (priority 2020, published 2023).
# Tested on: HBV rcDNA
# Assay: HepDE19 assay with bDNA quantitation of HBV rcDNA
# Assay type: cell-based, hepatitis B virus (HBV)
# Conditions: HepDE19 cells, 7 day incubation, rcDNA measured by Quantigene 2.0 bDNA assay, top concentration 25 μM; read-out: DE-19bDNA EC50
# Procedure: HepDE19 assay with bDNA quantitation of HBV rcDNA:
# HepDE19 (50,000 cells/well) were plated in 96-well collagen-coated tissue-culture treated microtiter plates in DMEM/F12 medium supplemented with 10% fetal bovine serum, 1% penicillin-streptomycin and 1 μg/mL tetracycline and incubated in a humidified incubator at 37° C. and 5% CO2 overnight. Next day, the cells were switched to fresh medium without tetracycline and incubated for 4 hours at 37° C. and 5% CO2. […] The final DMSO concentration in the assay was 0.5%. The plates were incubated for 7 days in a humidified incubator at 37° C. and 5% CO2. Following a 7 day-incubation, the level of rcDNA present in the inhibitor-treated wells was measured using a Quantigene 2.0 bDNA assay kit (Affymetrix, Santa Clara, CA) with HBV specific custom probe set and manufacturers instructions. Concurrently, the effect of compounds on cell viability was assessed using replicate plates, plated at a density of 5,000 cells/well and incubated for 4 days, to determine the ATP content as a measure of cell viability using the cell-titer glo reagent (CTG; Promega Corporation, Madison, WI) as per manufacturer's instructions.
row,SMILES,EC50 [nM]
1,"CC(c1c[nH]c(=O)c2cc(F)c(F)cc12)N(C)C(=O)C1Cc2c(F)cc(F)cc2N1 (stereo not drawn) [Compound 99, N-(1-(6,7-Difluoro-1-oxo-1,2-dihydroisoquinolin-4-yl)ethyl)-4,6-difluoro-N-methylindoline-2-carboxamide]",70
2,"CC(c1c[nH]c(=O)c2cc(F)c(F)cc12)N(C)C(=O)c1cc2cc(F)ccn2c1 (single isomer, unassigned) [Compound 108, N-(1-(6,7-Difluoro-1-oxo-1,2-dihydroisoquinolin-4-yl)ethyl)-7-fluoro-N-methylindolizine-2-carboxamide]",20
3,"CC(c1c[nH]c(=O)c2cc(F)c(F)cc12)N(C)C(=O)c1cc2cc(F)ccn2c1 (single isomer, unassigned) [Compound 109, N-(1-(6,7-Difluoro-1-oxo-1,2-dihydroisoquinolin-4-yl)ethyl)-7-fluoro-N-methylindolizine-2-carboxamide]",3200
4,"CC(c1c[nH]c(=O)c2cc(F)c(F)cc12)N(C)C(=O)c1nc2cc(F)c(F)cc2[nH]1 (single isomer, unassigned) [Compound 50, N-(1-(6,7-Difluoro-1-oxo-1,2-dihydroisoquinolin-4-yl)ethyl)-5,6-difluoro-N-methyl-1H-benzo[d]imidazole-2-carboxamide]",290
5,"CC(c1c[nH]c(=O)c2cc(F)c(F)cc12)N(C)C(=O)c1n[nH]c2ccccc12 (single isomer, unassigned) [Compound 56, N-(1-(6,7-Difluoro-1-oxo-1,2-dihydroisoquinolin-4-yl)ethyl)-N-methyl-2H-indazole-3-carboxamide]",≥ 25000
6,"CC(c1c[nH]c(=O)c2cc(F)c(F)cc12)N(C)C(=O)C1Cc2cc(F)ccc2N1 (stereo not drawn) [Compound 62, N-(1-(6,7-Difluoro-1-oxo-1,2-dihydroisoquinolin-4-yl)ethyl)-5-fluoro-N-methylindoline-2-carboxamide]",190
7,"CC(c1c[nH]c(=O)c2c(F)c(F)ccc12)N(C)C(=O)C1Cc2c(F)cc(F)cc2N1 (stereo not drawn) [Compound 66, N-(1-(7,8-Difluoro-1-oxo-1,2-dihydroisoquinolin-4-yl)ethyl)-4,6-difluoro-N-methylindoline-2-carboxamide]",210
8,"CC(c1c[nH]c(=O)c2cc(F)c(F)cc12)N(C)C(=O)c1cc2c(F)cccn2c1 (single isomer, unassigned) [Compound 80, N-(1-(6,7-Difluoro-1-oxo-1,2-dihydroisoquinolin-4-yl)ethyl)-8-fluoro-N-methylindolizine-2-carboxamide]",20
9,"CC(c1c[nH]c(=O)c2cc(F)c(F)cc12)N(C)C(=O)c1ccc(C(F)(F)F)c(F)c1 (single isomer, unassigned) [Compound 120, N-(1-(6,7-Difluoro-1-oxo-1,2-dihydroisoquinolin-4-yl)ethyl)-3-fluoro-N-methyl-4-(trifluoromethyl) benzamide]",20
10,"CC(c1c[nH]c(=O)c2cc(F)c(F)cc12)N(C)C(=O)c1cc2ccccc2[nH]1 (single isomer, unassigned) [Compound 1, N-(1-(6,7-Difluoro-1-oxo-1,2-dihydroisoquinolin-4-yl)ethyl)-N-methyl-1H-indole-2-carboxamide]",2500
11,"COc1ncc(C(C)N(C)C(=O)c2ccc(Br)c(F)c2)c2cc(F)c(F)cc12 (single isomer, unassigned) [Compound 177, 4-Bromo-N-(1-(6,7-difluoro-1-methoxyisoquinolin-4-yl)ethyl)-3-fluoro-N-methylbenzamide]",20200
12,"CC(c1c[nH]c(=O)c2cc(F)c(F)cc12)N(C)C(=O)[C@@H]1Cc2ccccc2N1 (single isomer, unassigned) [Compound 31]",20000
13,"CC(c1c[nH]c(=O)c2cc(F)c(F)cc12)N(C)C(=O)c1cc(F)c(F)c(F)c1 (single isomer, unassigned) [Compound 123, N-(1-(6,7-Difluoro-1-oxo-1,2-dihydroisoquinolin-4-yl)ethyl)-3,4,5-trifluoro-N-methylbenzamide]",22400
14,"CC(c1c[nH]c(=O)c2cc(F)c(F)cc12)N(C)C(=O)[C@H]1Cc2ccccc2N1 (single isomer, unassigned) [Compound 21]",300
15,"CC(c1c[nH]c(=O)c2cc(F)c(F)cc12)N(C)C(=O)c1nc2cc(F)c(F)cc2[nH]1 (single isomer, unassigned) [Compound 49, N-(1-(6,7-Difluoro-1-oxo-1,2-dihydroisoquinolin-4-yl)ethyl)-5,6-difluoro-N-methyl-1H-benzo[d]imidazole-2-carboxamide]",3100
16,"CC(c1cn(C)c(=O)c2cc(F)c(F)cc12)N(C)C(=O)c1ccc(Br)cc1 (single isomer, unassigned) [Compound 168, 4-bromo-N-(1-(6,7-difluoro-2-methyl-1-oxo-1,2-dihydroisoquinolin-4-y1)ethyl)-N-methylbenzamide]",30
17,"CC(c1c[nH]c(=O)c2cc(F)c(F)cc12)N(C)C(=O)c1cc(F)c(F)c(F)c1 (single isomer, unassigned) [Compound 124, N-(1-(6,7-Difluoro-1-oxo-1,2-dihydroisoquinolin-4-yl)ethyl)-3,4,5-trifluoro-N-methylbenzamide]",190
18,"CC(c1c[nH]c(=O)c2cc(F)c(F)cc12)N(C)C(=O)C1Cc2c(F)cc(F)cc2N1 (stereo not drawn) [Compound 101, N-(1-(6,7-Difluoro-1-oxo-1,2-dihydroisoquinolin-4-yl)ethyl)-4,6-difluoro-N-methylindoline-2-carboxamide]",30
19,"COc1ncc(C(C)N(C)C(=O)c2ccc(C(F)(F)F)c(F)c2)c2cc(F)c(F)cc12 (single isomer, unassigned) [Compound 175, N-(1-(6,7-Difluoro-1-methoxyisoquinolin-4-yl)ethyl)-3-fluoro-N-methyl-4-(trifluoromethyl)benzamide]",24300
20,"CC(c1c[nH]c(=O)c2c(F)c(F)ccc12)N(C)C(=O)C1Cc2cc(F)ccc2N1 (stereo not drawn) [Compound 74, N-(1-(7,8-Difluoro-1-oxo-1,2-dihydroisoquinolin-4-yl)ethyl)-5-fluoro-N-methylindoline-2-carboxamide]",260
21,"CC(c1c[nH]c(=O)c2cc(F)c(F)cc12)N(C)C(=O)C1Cc2c(F)cc(F)cc2N1 (stereo not drawn) [Compound 100, N-(1-(6,7-Difluoro-1-oxo-1,2-dihydroisoquinolin-4-yl)ethyl)-4,6-difluoro-N-methylindoline-2-carboxamide]",800
22,"CC(c1c[nH]c(=O)c2cc(F)c(F)cc12)N(C)C(=O)C1Nc2ccccc2C1(C)C (stereo not drawn) [Compound 114, N-(1-(6,7-Difluoro-1-oxo-1,2-dihydroisoquinolin-4-yl)ethyl)-N,3,3-trimethylindoline-2-carboxamide]",16000
23,"CC(c1c[nH]c(=O)c2c(F)c(F)ccc12)N(C)C(=O)c1cc2c(F)cccn2c1 (single isomer, unassigned) [Compound 81, N-(1-(7,8-Difluoro-1-oxo-1,2-dihydroisoquinolin-4-yl)ethyl)-8-fluoro-N-methylindolizine-2-carboxamide]",2100

# Same assay, conditions: Hepatitis B virus, HepDE19, 168 h, HepDE19 cells, 7 day incubation, rcDNA measured by Quantigene 2.0 bDNA assay, top concentration 25 μM; read-out: DE-19bDNA EC50
row,SMILES,EC50 [nM]
1,"CC(c1c[nH]c(=O)c2cc(F)c(F)cc12)N(C)C(=O)c1n[nH]c2ccccc12 (single isomer, unassigned) [Compound 55, N-(1-(6,7-Difluoro-1-oxo-1,2-dihydroisoquinolin-4-yl)ethyl)-N-methyl-2H-indazole-3-carboxamide]",16000
2,"CC(C)CN(C(=O)c1ccc(C(F)(F)F)c(F)c1)C(C)c1c[nH]c(=O)c2c(F)c(F)ccc12 (racemic) [Compound 118, N-(1-(7,8-Difluoro-1-oxo-1,2-dihydroisoquinolin-4-yl)ethyl)-3-fluoro-N-isobutyl-4-(trifluoromethyl)benzamide]",2230
3,"C[C@H](c1c[nH]c(=O)c2ccccc12)N(C)C(=O)c1cc2c(Cl)cccn2c1 [Compound 154, (R)-8-Chloro-N-methyl-N-(1-(1-oxo-1,2-dihydroisoquinolin-4-yl)ethyl)indolizine-2-carboxamide]",140
4,"C[C@H](c1c[nH]c(=O)c2ccccc12)N(C)C(=O)c1ccc(C(F)(F)F)c(F)c1 [Compound 145, (R)-3-Fluoro-N-methyl-N-(1-(1-oxo-1,2-dihydroisoquinolin-4-yl)ethyl)-4-(trifluoromethyl)benzamide]",110

# Same assay, conditions: read-out: DE-19bDNA EC50; HepDE19 cells, 7 day incubation, rcDNA measured by Quantigene 2.0 bDNA assay, top concentration 25 μM
row,SMILES,EC50 [nM]
1,"CC(c1c[nH]c(=O)c2cc(F)c(F)cc12)N(C)C(=O)c1ccc(Cl)cc1 (single isomer, unassigned) [Compound 131, 4-Chloro-N-(1-(6,7-difluoro-1-oxo-1,2-dihydroisoquinolin-4-yl)ethyl)-N-methylbenzamide]",14700
2,"CC(c1c[nH]c(=O)c2c(F)c(F)ccc12)N(C)C(=O)c1cc2ccccn2c1 (single isomer, unassigned) [Compound 71, N-(1-(7,8-Difluoro-1-oxo-1,2-dihydroisoquinolin-4-yl)ethyl)-N-methylindolizine-2-carboxamide]",6500
3,"COc1ncc(C(C)N(C)C(=O)c2ccc(Br)cc2)c2cc(F)c(F)cc12 (single isomer, unassigned) [Compound 164, 4-Bromo-N-(1-(6,7-difluoro-1-methoxyisoquinolin-4-yl)ethyl)-N-methylbenzamide]",17200
